Measured values as given in PubChem BioAssay AID1259407 (Chemical Carcinogenesis Research Information System (CCRIS), 2018).
The source made the active and inactive calls. The rule behind the calls is not given here.

Test system: CCRIS mutagenicity, Ames/micronucleus/aberration tests
Test: CCRIS mutagenicity studies
[1] = Test System: AMES SALMONELLA TYPHIMURIUM, Strain/Indicator: TA98, Metabolic Activation: HAMSTER, LIVER, S-9, AROCLOR 1254 (30%), Method: PREINCUBATION
[2] = Test System: AMES SALMONELLA TYPHIMURIUM, Strain/Indicator: TA98, Metabolic Activation: NONE, Method: PREINCUBATION
[3] = Test System: AMES SALMONELLA TYPHIMURIUM, Strain/Indicator: TA100, Metabolic Activation: HAMSTER, LIVER, S-9, AROCLOR 1254 (30%), Method: PREINCUBATION
[4] = Test System: AMES SALMONELLA TYPHIMURIUM, Strain/Indicator: TA100, Metabolic Activation: NONE, Method: PREINCUBATION

## Nc1ccc2ccccc2c1
Test System: AMES SALMONELLA TYPHIMURIUM, Strain/Indicator: TA98(1,8-DNP6), Metabolic Activation: PLANT CELLS, Method: PREINCUBATION
  mutagenic call: inactive; negative
[1]
  mutagenic call: active; positive
Test System: AMES SALMONELLA TYPHIMURIUM, Strain/Indicator: TA98, Metabolic Activation: HUMAN, RED BLOOD CELL, CYTOSOL, Method: PREINCUBATION
  mutagenic call: active; positive
Test System: AMES SALMONELLA TYPHIMURIUM, Strain/Indicator: TA98, Metabolic Activation: MOUSE, LIVER, S-9, PHENOBARBITAL AND BETA-NAPHTHOFLAVONE, Method: STANDARD PLATE
  mutagenic call: active; positive
Test System: AMES SALMONELLA TYPHIMURIUM, Strain/Indicator: TA98, Metabolic Activation: MOUSE, LIVER, S-9, PHENOBARBITAL, BETA-NAPHTHOFLAVONE, ISOSAFROLE, ETHANOL, PREGNENOLONE AND 16ALPHA-CARBONITRILE, Method: STANDARD PLATE
  mutagenic call: active; positive
[2]
  mutagenic call: inactive; negative
Test System: AMES SALMONELLA TYPHIMURIUM, Strain/Indicator: TA98, Metabolic Activation: NONE, Method: STANDARD PLATE
  mutagenic call: inactive; negative
Test System: AMES SALMONELLA TYPHIMURIUM, Strain/Indicator: TA98, Metabolic Activation: PLANT CELLS, Method: PREINCUBATION
  mutagenic call: inactive; negative
Test System: AMES SALMONELLA TYPHIMURIUM, Strain/Indicator: TA98, Metabolic Activation: RAT, LIVER, S-9, AROCLOR 1254 (2%), Method: STANDARD PLATE
  mutagenic call: active; positive
Test System: AMES SALMONELLA TYPHIMURIUM, Strain/Indicator: TA98, Metabolic Activation: RAT, LIVER, S-9, AROCLOR 1254 (30%), Method: PREINCUBATION
  mutagenic call: active; positive
Test System: AMES SALMONELLA TYPHIMURIUM, Strain/Indicator: TA98, Metabolic Activation: RAT, LIVER, S-9, AROCLOR 1254, Method: STANDARD PLATE
  mutagenic call: inactive; negative
Test System: AMES SALMONELLA TYPHIMURIUM, Strain/Indicator: TA98, Metabolic Activation: RAT, LIVER, S-9, KANECHLOR 500 OR PHENOBARBITAL AND BETA-NAPHTHOFLAVONE, Method: PREINCUBATION
  mutagenic call: active; positive
[3]
  mutagenic call: active; positive
[4]
  mutagenic call: inactive; negative
Test System: AMES SALMONELLA TYPHIMURIUM, Strain/Indicator: TA100, Metabolic Activation: NONE, Method: STANDARD PLATE
  mutagenic call: inactive; negative
Test System: AMES SALMONELLA TYPHIMURIUM, Strain/Indicator: TA100, Metabolic Activation: RAT, LIVER, S-9, AROCLOR 1254 (10%) (WITHOUT ADDED COFACTORS), Method: STANDARD PLATE
  mutagenic call: inactive; negative
Test System: AMES SALMONELLA TYPHIMURIUM, Strain/Indicator: TA100, Metabolic Activation: RAT, LIVER, S-9, AROCLOR 1254 (30%), Method: PREINCUBATION
  mutagenic call: active; positive
Test System: AMES SALMONELLA TYPHIMURIUM, Strain/Indicator: TA100, Metabolic Activation: RAT, LIVER, S-9, AROCLOR 1254, Method: STANDARD PLATE
  mutagenic call: active; positive
Test System: AMES SALMONELLA TYPHIMURIUM, Strain/Indicator: TA100, Metabolic Activation: RAT, LIVER, S-9, AROCLOR (10%), Method: STANDARD PLATE
  mutagenic call: active; positive
Test System: AMES SALMONELLA TYPHIMURIUM, Strain/Indicator: TA100, Metabolic Activation: RAT, LIVER, S-9, KANECHLOR 500 OR PHENOBARBITAL AND BETA-NAPHTHOFLAVONE, Method: PREINCUBATION
  mutagenic call: active; positive
Test System: AMES SALMONELLA TYPHIMURIUM, Strain/Indicator: TA100, Metabolic Activation: RAT, LIVER, S-9, KC500 OR PHENOBARBITAL, Method: LIQUID SUSPENSION
  mutagenic call: active; positive
Test System: AMES SALMONELLA TYPHIMURIUM, Strain/Indicator: TA100, Metabolic Activation: RAT, LIVER, S-9, TCDD, Method: STANDARD PLATE
  mutagenic call: active; positive
Test System: AMES SALMONELLA TYPHIMURIUM, Strain/Indicator: TA100, Metabolic Activation: S-9, Method: FLUCTUATION TEST
  mutagenic call: active; positive
Test System: AMES SALMONELLA TYPHIMURIUM, Strain/Indicator: TA1535, Metabolic Activation: RAT, LIVER, S-9, AROCLOR 1254, Method: STANDARD PLATE
  mutagenic call: active; positive
Test System: AMES SALMONELLA TYPHIMURIUM, Strain/Indicator: TA1535, Metabolic Activation: RAT, LIVER, S-9, AROCLOR (10%), Method: STANDARD PLATE
  mutagenic call: active; positive
Test System: AMES SALMONELLA TYPHIMURIUM, Strain/Indicator: TA1535, Metabolic Activation: RAT, LIVER, S-9, PHENOBARBITAL, Method: STANDARD PLATE
  mutagenic call: active; positive
Test System: AMES SALMONELLA TYPHIMURIUM, Strain/Indicator: YG1024, Metabolic Activation: PLANT CELLS, Method: PREINCUBATION
  mutagenic call: inactive; negative
Test System: CHINESE HAMSTER V-79, Strain/Indicator: V-79/6-THIOGUANINE, Metabolic Activation: NONE, Method: SUSPENSION/PLATE
  mutagenic call: inactive; negative
Test System: CHINESE HAMSTER V-79, Strain/Indicator: V-79/6-THIOGUANINE, Metabolic Activation: RAT, LIVER, S-9, PHENOBARBITAL AND BETA-NAPHTHOFLAVONE, Method: SUSPENSION/PLATE
  mutagenic call: active; positive
Test System: E. COLI, Strain/Indicator: WP2 UVRA, Metabolic Activation: HAMSTER, LIVER, S-9, AROCLOR 1254, Method: STANDARD PLATE
  mutagenic call: inactive; negative
Test System: E. COLI, Strain/Indicator: WP2 UVRA, Metabolic Activation: HAMSTER, LIVER, S-9, Method: STANDARD PLATE
  mutagenic call: inactive; negative
Test System: E. COLI, Strain/Indicator: WP2 UVRA, Metabolic Activation: MOUSE, LIVER, S-9, AROCLOR 1254, Method: STANDARD PLATE
  mutagenic call: inactive; negative
Test System: E. COLI, Strain/Indicator: WP2 UVRA, Metabolic Activation: MOUSE, LIVER, S-9, Method: STANDARD PLATE
  mutagenic call: inactive; negative
Test System: E. COLI, Strain/Indicator: WP2 UVRA, Metabolic Activation: NONE, Method: STANDARD PLATE
  mutagenic call: inactive; negative
Test System: E. COLI, Strain/Indicator: WP2 UVRA, Metabolic Activation: RAT, LIVER, S-9, AROCLOR 1254, Method: STANDARD PLATE
  mutagenic call: inactive; negative
Test System: E. COLI, Strain/Indicator: WP2 UVRA, Metabolic Activation: RAT, LIVER, S-9, Method: STANDARD PLATE
  mutagenic call: inactive; negative

## CCOP(=O)(NC(C)C)Oc1ccc(SC)c(C)c1 (stereo not drawn)
Test System: AMES SALMONELLA TYPHIMURIUM, Strain/Indicator: TA97, Metabolic Activation: HAMSTER, LIVER, S-9, AROCLOR 1254 (10%), Method: PREINCUBATION
  mutagenic call: inactive; negative
Test System: AMES SALMONELLA TYPHIMURIUM, Strain/Indicator: TA97, Metabolic Activation: HAMSTER, LIVER, S-9, AROCLOR 1254 (30%), Method: PREINCUBATION
  mutagenic call: inactive; negative
Test System: AMES SALMONELLA TYPHIMURIUM, Strain/Indicator: TA97, Metabolic Activation: NONE, Method: PREINCUBATION
  mutagenic call: inactive; negative
Test System: AMES SALMONELLA TYPHIMURIUM, Strain/Indicator: TA97, Metabolic Activation: RAT, LIVER, S-9, AROCLOR 1254 (10 OR 30%), Method: PREINCUBATION
  mutagenic call: inactive; negative
Test System: AMES SALMONELLA TYPHIMURIUM, Strain/Indicator: TA98, Metabolic Activation: HAMSTER, LIVER, S-9, AROCLOR 1254 (10%), Method: PREINCUBATION
  mutagenic call: inactive; negative
[1]
  mutagenic call: inactive; negative
[2]
  mutagenic call: inactive; negative
Test System: AMES SALMONELLA TYPHIMURIUM, Strain/Indicator: TA98, Metabolic Activation: RAT, LIVER, S-9, AROCLOR 1254 (10 OR 30%), Method: PREINCUBATION
  mutagenic call: inactive; negative
Test System: AMES SALMONELLA TYPHIMURIUM, Strain/Indicator: TA100, Metabolic Activation: HAMSTER, LIVER, S-9, AROCLOR 1254 (10%), Method: PREINCUBATION
  mutagenic call: inactive; negative
[3]
  mutagenic call: inactive; negative
[4]
  mutagenic call: inactive; negative
Test System: AMES SALMONELLA TYPHIMURIUM, Strain/Indicator: TA100, Metabolic Activation: RAT, LIVER, S-9, AROCLOR 1254 (10 OR 30%), Method: PREINCUBATION
  mutagenic call: inactive; negative
Test System: AMES SALMONELLA TYPHIMURIUM, Strain/Indicator: TA1535, Metabolic Activation: HAMSTER, LIVER, S-9, AROCLOR 1254 (10%), Method: PREINCUBATION
  mutagenic call: inactive; negative
Test System: AMES SALMONELLA TYPHIMURIUM, Strain/Indicator: TA1535, Metabolic Activation: HAMSTER, LIVER, S-9, AROCLOR 1254 (30%), Method: PREINCUBATION
  mutagenic call: inactive; negative
Test System: AMES SALMONELLA TYPHIMURIUM, Strain/Indicator: TA1535, Metabolic Activation: NONE, Method: PREINCUBATION
  mutagenic call: inactive; negative
Test System: AMES SALMONELLA TYPHIMURIUM, Strain/Indicator: TA1535, Metabolic Activation: RAT, LIVER, S-9, AROCLOR 1254 (10 OR 30%), Method: PREINCUBATION
  mutagenic call: inactive; negative

## CCCCCCCCCCCCCCCc1cccc(O)c1C(=O)O
End Point: In vivo micronucleus, Test System: Peripheral blood erythrocytes, Species: Mouse, Strain/Sex: CD-1, Route: Oral
  mutagenic call: inactive; negative
